Reference: paper PMC3429506, “Screening for Novel LRRK2 Inhibitors Using a High-Throughput TR-FRET Cellular Assay for LRRK2 Ser935 Phosphorylation” (PLoS ONE, 2012)
pIC50: −log10 of the molar value.

Legend:
LRRK2 wild-type = LRRK2 wild-type (Homo sapiens, UniProt Q5S007); test: TR-FRET cellular assay for LRRK2 Ser935 phosphorylation, HEK293T cells, BacMam LRRK2-GFP wild-type; set-up: This high-throughput assay utilizes cells expressing full-length human LRRK2 with a C-terminal GFP tag (LRRK2-GFP); host or cells: HEK293T cells transduced with BacMam; conditions: WT, +/- SD, three independent experiments, * = partial inhibition, read-out: IC50, TR-FRET cell-based assay for Ser935 phosphorylation of LRRK2
LRRK2 wild-type, sequence (Q5S007 whole entry): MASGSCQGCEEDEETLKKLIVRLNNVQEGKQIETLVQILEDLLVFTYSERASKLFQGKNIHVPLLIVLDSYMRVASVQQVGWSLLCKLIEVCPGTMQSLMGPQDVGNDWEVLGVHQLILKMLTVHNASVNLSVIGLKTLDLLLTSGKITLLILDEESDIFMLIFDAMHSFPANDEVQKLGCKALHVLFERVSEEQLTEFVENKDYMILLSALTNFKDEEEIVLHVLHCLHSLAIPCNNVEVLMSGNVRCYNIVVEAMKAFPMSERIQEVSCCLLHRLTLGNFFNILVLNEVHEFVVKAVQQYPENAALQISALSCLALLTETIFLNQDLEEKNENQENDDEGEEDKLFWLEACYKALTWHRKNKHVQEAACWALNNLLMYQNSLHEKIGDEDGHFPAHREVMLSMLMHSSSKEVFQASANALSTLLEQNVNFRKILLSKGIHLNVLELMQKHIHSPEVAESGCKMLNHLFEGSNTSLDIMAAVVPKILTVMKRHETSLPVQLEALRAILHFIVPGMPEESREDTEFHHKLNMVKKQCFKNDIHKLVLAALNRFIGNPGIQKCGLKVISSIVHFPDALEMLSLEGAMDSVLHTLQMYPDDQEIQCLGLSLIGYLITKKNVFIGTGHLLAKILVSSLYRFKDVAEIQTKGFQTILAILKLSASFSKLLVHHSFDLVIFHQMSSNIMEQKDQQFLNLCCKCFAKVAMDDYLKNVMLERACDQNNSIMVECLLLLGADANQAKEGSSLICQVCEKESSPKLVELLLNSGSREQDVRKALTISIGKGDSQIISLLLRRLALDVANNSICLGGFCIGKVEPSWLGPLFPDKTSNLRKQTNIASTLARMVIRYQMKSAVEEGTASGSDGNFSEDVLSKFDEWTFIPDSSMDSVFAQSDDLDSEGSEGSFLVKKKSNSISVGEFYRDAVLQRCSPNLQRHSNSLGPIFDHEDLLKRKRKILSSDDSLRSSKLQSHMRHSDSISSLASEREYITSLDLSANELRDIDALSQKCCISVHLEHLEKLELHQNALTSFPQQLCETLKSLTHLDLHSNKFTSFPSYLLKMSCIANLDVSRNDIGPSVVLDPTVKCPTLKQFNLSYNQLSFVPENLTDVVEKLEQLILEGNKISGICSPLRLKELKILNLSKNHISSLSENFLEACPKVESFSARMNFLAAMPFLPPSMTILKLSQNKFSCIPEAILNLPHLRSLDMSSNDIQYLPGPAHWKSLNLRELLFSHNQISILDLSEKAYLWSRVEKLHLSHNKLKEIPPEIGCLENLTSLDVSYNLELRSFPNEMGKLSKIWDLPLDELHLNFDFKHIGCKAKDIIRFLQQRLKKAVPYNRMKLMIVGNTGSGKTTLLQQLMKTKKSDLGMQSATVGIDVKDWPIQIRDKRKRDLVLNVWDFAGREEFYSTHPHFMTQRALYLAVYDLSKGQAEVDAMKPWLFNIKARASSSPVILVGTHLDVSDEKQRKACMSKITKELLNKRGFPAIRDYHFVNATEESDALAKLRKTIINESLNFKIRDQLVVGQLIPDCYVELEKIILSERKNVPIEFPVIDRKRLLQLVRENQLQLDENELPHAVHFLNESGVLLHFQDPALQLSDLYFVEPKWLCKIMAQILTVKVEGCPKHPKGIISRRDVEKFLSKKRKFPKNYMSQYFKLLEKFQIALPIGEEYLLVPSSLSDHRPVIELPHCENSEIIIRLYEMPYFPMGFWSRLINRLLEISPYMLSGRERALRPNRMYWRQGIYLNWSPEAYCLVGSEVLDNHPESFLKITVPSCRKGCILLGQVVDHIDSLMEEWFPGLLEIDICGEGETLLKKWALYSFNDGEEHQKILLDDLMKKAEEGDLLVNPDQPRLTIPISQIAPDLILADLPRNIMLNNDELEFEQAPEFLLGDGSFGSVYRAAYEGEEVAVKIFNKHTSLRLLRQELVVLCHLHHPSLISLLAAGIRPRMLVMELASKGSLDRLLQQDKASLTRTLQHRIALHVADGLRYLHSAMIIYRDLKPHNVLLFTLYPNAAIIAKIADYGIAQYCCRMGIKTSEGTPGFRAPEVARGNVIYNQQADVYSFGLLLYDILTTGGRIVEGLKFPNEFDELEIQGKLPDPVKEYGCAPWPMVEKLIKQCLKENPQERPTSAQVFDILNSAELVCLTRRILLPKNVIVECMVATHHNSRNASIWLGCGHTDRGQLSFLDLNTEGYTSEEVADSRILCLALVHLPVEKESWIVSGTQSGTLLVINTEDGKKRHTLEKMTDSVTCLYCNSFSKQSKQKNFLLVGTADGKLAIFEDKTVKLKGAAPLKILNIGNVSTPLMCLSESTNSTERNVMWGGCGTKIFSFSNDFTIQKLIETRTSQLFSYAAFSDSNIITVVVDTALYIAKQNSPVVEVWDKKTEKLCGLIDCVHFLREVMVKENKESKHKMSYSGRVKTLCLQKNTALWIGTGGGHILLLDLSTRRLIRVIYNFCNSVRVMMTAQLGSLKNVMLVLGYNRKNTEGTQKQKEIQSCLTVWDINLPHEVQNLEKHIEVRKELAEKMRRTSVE
Procedure: U-2 OS cells are maintained in growth medium (McCoy’s 5A supplemented with 10% dialyzed FBS (dFBS), 10 mM HEPES, 0.1 mM NEAA, 1 mM Sodium Pyruvate, and 100 U/mL Penicillin/100 µg/mL Streptomycin). HEK293T cells are maintained in DMEM with 10% dFBS, 10 mM HEPES, 0.1 mM NEAA and 100 U/mL Penicillin/100 µg/mL Streptomycin. SH-SY5Y cells are maintained in DMEM/F-12 medium supplemented with 10% dFBS and 100 U/mL Penicillin/100 µg/mL Streptomycin. […] GIBCO® human neural stem cells (hNSCs) were propagated as an adherent culture in StemPro® NSC SFM according to the manufacturer’s recommended protocol (Life Technologies). For BacMam transduction of U-2 OS and HEK293T, cells were harvested, mixed with various amounts of BacMam LRRK2-GFP reagent (v/v) and plated onto 6-well plates. […] Cells were assayed in 384-well format (∼20,000 cells/well) 48 hours post-transduction as above.
Transduced cells in the 384-well assay plate were incubated with indicated inhibitors (5X, 5 µL/well) for 60 to 90 minutes. During this time, 6 X lysis buffer (Life Technologies) was supplemented with 30 nM Tb-labeled anti-LRRK2 pSer935 antibody and both protease and phosphatase inhibitor cocktails (Sigma). The complete 6 X lysis buffer was added to each well (5 µL/well) and the plates were incubated at room temperature in the dark for 2 hours. […] A sigmoidal dose-response equation with varying slope was used to fit the data and generate IC50 values. Z′-factor values were calculated as: Z′-factor = 1 - [(3 × stdevno virus +3 × stdevmaxvirus)/(avgmaxvirus – avgno-virus)]. The IC50 values reported in Table 1 are the averaged numbers from three independent experiments.

LRRK2 G2019S = LRRK2 G2019S (Homo sapiens, UniProt Q5S007, G2019S); test: In vitro biochemical LRRK2 TR-FRET activity assay; conditions: LRRK2 G2019S, ATP 134 µM (Km,app), LRRKtide substrate, three independent experiments; read-out: Biochemical LRRK2 assay IC50 +/- SD
LRRK2 G2019S, sequence (Q5S007 whole entry G2019S): as the sequence (Q5S007 whole entry) above, with G2019S counted along it

SMILES: COc1cc(C(=O)N2CCC(N3CCN(C)CC3)CC2)ccc1Nc1ncc2c(n1)N(C)c1ccccc1C(=O)N2C [LRRK2-IN-1]
- pIC50 (LRRK2 wild-type): 6.92
- pIC50 (LRRK2 G2019S): 8.00
